According to patent publication EP0315434A2, “Pyridoxal hydrazone derivatives their production and use and pharmaceutical compositions containing the same” (YISSUM RESEARCH DEVELOPMENT COMPANY OF THE HEBREW …, priority 1987, dated 1989):
Where two headings read alike, the source gives them in different places.

What was measured:
[1] = target: T1, Ribonucleoside Diphosphate Reductase (RdR) (Homo sapiens, UniProt P31350); assay: Inhibition of ribonucleotide diphosphate reductase; type: biochemical
T1 sequence (P31350 1-389): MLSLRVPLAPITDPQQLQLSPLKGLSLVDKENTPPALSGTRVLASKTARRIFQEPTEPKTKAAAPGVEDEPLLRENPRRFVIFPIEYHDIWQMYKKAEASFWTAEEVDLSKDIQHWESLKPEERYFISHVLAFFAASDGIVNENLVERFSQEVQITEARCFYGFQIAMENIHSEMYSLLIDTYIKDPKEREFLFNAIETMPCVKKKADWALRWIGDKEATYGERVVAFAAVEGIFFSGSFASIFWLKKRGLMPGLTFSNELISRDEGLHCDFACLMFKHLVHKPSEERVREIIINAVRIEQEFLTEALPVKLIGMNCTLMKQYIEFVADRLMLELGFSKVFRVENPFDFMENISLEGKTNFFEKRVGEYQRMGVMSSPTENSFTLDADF

[2] = test system: chloroquine-resistant strain of P. falciparum (FCR-3)
Procedure: Cultures of a chloroquine-resistant strain of P. falciparum (FCR-3), cultivated in human erythrocytes (a technique widely used at the Kuvin Centre, Hebrew University Hadassah Medical School), were suspended in solutions containing chelators and then cultured for 3 days. Growth of parasites was determined by either slide counts or by incorporation of ³H-hypoxanthine. The parasite growth was monitored by microscopic slide counts. […]

[3] = test system: Leukemia P 388; assay: Leukemia P 388 survival in mice; type: in vivo, Mice: female B6D2F1; settings: days 1, 2, 3, 4
[4] = test system: Lewis lung carcinoma; assay: Inhibition of Lewis lung carcinoma (primary tumor and metastases); type: in vivo; settings: dose 25 mg/kg
Text: It becomes possible also to look at the ability of one of the compounds (Ex. 1) to inhibit the growth of Lewis lung carcinoma. With a view to possible mechanisms we employed the well-established anti-cancer antibiotics (a) bleomycin, and (b) daunorubicin, as reference compounds.

[5] = Fate of ⁵⁹Fe tracer incubated with chelator and injected into normal rats (radioiron distribution and excretion); type: in vivo; settings: for TOTAL EXCRETION OF RADIO-IRON IN RATS %: as in Table 1; for Radioiron Distribution in % Feces / Radioiron Distribution in % Total excretion / Radioiron Distribution in % Urine / Radioiron Distribution in % Blood / Radioiron Distribution in % Liver / Radioiron Distribution in % Spleen: 10 mg chelator with ⁵⁹Fe, subcutaneous, normal rats; for Radioiron Distribution in % Feces / Radioiron Distribution in % Total excretion / Radioiron Distribution in % Urine: cumulative within 4 days; for Radioiron Distribution in % Blood / Radioiron Distribution in % Liver / Radioiron Distribution in % Spleen: within 4 days
Procedure: Table 1 describes the fate of ⁵⁹Fe tracer reincubated […] with 10 mg of some of the above iron chelators and then injected subcutaneously to groups of 4 normal rats. Numbers represent mean cumulative radioiron excretion within 4 days of injection. For comparison, spontaneous excretion of radioiron and the excretion of desferrioxamine (DF) bound radioiron are also given. […]
Spleen and kidney were counted as whole organs.
(§1) The excretion of radioiron following ⁵⁹Fe labelling was measured in animals confined to solitary metabolic cages with stainless steel grid bottoms, and stool and urine were collected separately.

[6] = Iron chelation in H₂O (spectrophotometric, apparent K), ferrous ions; type: physicochemical
[7] = Mobilization of iron from hepatic parenchymal stores in hypertransfused rats labelled with ⁵⁹Fe-ferritin; type: in vivo
Procedure: In each case, 40 mg of each compound was administered per animal in a single subcutaneous injection.
In vivo studies of chelating efficiency were performed in two models: (a) normal rats injected i.p. with 10 mg of either desferrioxamine B (DF), PIH of the prior art, PPH of Example 4 or PPHE from Example 5 labelled in vitro with ⁵⁹Fe; and (b) hypertransfused rats receiving twice 4 ml/100gm packed RBC intravenously 5 and 3 days prior to study (hematocrit 68%) and labelled with ⁵⁹Fe-ferritin injected i.v. 24h prior to iron chelating therapy as described previously. Drugs to be tested in the ⁵⁹Fe-ferritin model were given either by i.p. injection or by gastric tube at a dose of 40 mg per animal. Radioiron excretion and organ distribution were determined after 4 days
The radioactivity of spleen, weighed portions of the liver, and 1 ml samples of blood were determined in an automatic well type scintillation counter (Packard Autogamma Model 5360 Scintillation spectrometer). Spleen and kidney were counted as whole organs.
as §1, with “Whole body counts were performed in a small animal counter (Packard Model 446 Armac) scintillation detector. The” for “The”

[8] = rats
[9] = molar concentration 2 x 10⁻⁵, cultured 3 days
[10] = 40 mg i.p., hypertransfused rats, 4 days
[11] = hypertransfused rats, 40 mg per animal, after 4 days, Desferral i.p., route not printed for Ex. 4 and Ex. 5, mean ± SD
[12] = oral administration of 40 mg, hypertransfused rats

NC(=O)NO [Hydroxyurea, reference compound]
Inhibition of Ribonucleoside Diphosphate Reductase (RdR) % ([1]; dose 1 x 10⁻⁵ M): 15%
Inhibition of Ribonucleoside Diphosphate Reductase (RdR) % ([1]; dose 10 x 10⁻⁵ M): 37%
Inhibition of Ribonucleoside Diphosphate Reductase (RdR) % ([1]; dose 100 x 10⁻⁵ M): 73%

Cc1ncc(CO)c(C=NNc2ccccn2)c1O [Ex. 1]
Inhibition of Ribonucleoside Diphosphate Reductase (RdR) % ([1]; dose 6.7 x 10⁻⁵ M (20 µg/ml)): 72%
INHIBITION OF GROWTH OF DRUG-RESISTANT STRAIN OF P. falciparum % INHIBITION ([2]; molar concentration 2 x 10⁻⁶, cultured 3 days): 93.4%
Activity T/C x 100 ([3]; 25 mg/kg i.p.): 105
Bodyweights Day 7-Day (g) ([3]; 25 mg/kg i.p.): +2.6 g
Survivors on Day 20 ([3]; 25 mg/kg i.p.): 0/5
Activity T/C x 100 ([3]; 37.5 mg/kg i.p.): 110
Bodyweights Day 7-Day (g) ([3]; 37.5 mg/kg i.p.): +0.2 g
Survivors on Day 20 ([3]; 37.5 mg/kg i.p.): 0/5
Bodyweights Day 7-Day (g) ([3]; 50 mg/kg i.p.): +0.8 g
Survivors on Day 20 ([3]; 50 mg/kg i.p.): 0/5
Activity T/C x 100 ([3]; 50 mg/kg i.p., P<0.05 (Mann-Whitney Test)): 126(xxx)
Activity T/C x 100 ([3]; 75 mg/kg i.p.): Toxic^(xx)
Bodyweights Day 7-Day ([3]; 75 mg/kg i.p.): -0.6 g
Survivors on Day 20 ([3]; 75 mg/kg i.p.): 0/5
Inhibition of Lewis Carcinoma Metastases % [4]: 41%
Inhibition of Lewis Carcinoma Primary Tumor % [4]: 0%
TOTAL EXCRETION OF RADIO-IRON IN RATS % [5]: 34.2%

Cc1ncc(CO)c(C=NNC(=O)c2cc[n+](C)cc2)c1O.[I-] [Ex. A, 1-[pyridoxylidene]-2-[N-methylisonicotinoylium] hydrazine iodide, reference compound]
INHIBITION OF GROWTH OF DRUG-RESISTANT STRAIN OF P. falciparum % INHIBITION [2, 9]: 16.6%
Radioiron Distribution in % Feces [5]: 22.7±1.1%
Radioiron Distribution in % Total excretion [5]: 26.4±1.3%
Radioiron Distribution in % Urine [5]: 3.7±0.2%
Radioiron Distribution in % Blood [5]: 33.3±2.1%
Radioiron Distribution in % Liver [5]: 12.8±0.2%
Radioiron Distribution in % Spleen [5]: 0.56±0.02%
TOTAL EXCRETION OF RADIO-IRON IN RATS % [5]: 26.4± 1.3%

CCOC(=O)[n+]1cc(CO)c(C=NNc2ncccn2)c(O)c1C [Ex. 5, 1-(N-ethoxycarbonylpyridoxylidenium]-2-[2′-pyrimidyl] hydrazine]
effectiveness in the chelation test relative to prior art PIH ([6]; compared with PIH): about sixty times more effective
higher affinity for ferrous than for ferric ions ([6]; ferrous versus ferric): ~30 fold
excretion of the radioiron label in the stool [7, 10]: 72%
reduction in hepatocellular (hepatic) radioactivity [7, 10]: 69%
ORGAN DISTRIBUTION AND EXCRETION OF ⁵⁹Fe-FERRITIN (%) BLOOD [7, 11]: 3.1±0.6%
ORGAN DISTRIBUTION AND EXCRETION OF ⁵⁹Fe-FERRITIN (%) LIVER [7, 11]: 63.8± 8.7%
ORGAN DISTRIBUTION AND EXCRETION OF ⁵⁹Fe-FERRITIN (%) STOOL [7, 11]: 27.6±1.3%
ORGAN DISTRIBUTION AND EXCRETION OF ⁵⁹Fe-FERRITIN (%) TOTAL EXCRETION [7, 11]: 28.1±1.3%
ORGAN DISTRIBUTION AND EXCRETION OF ⁵⁹Fe-FERRITIN (%) URINE [7, 11]: 0.5±0%
greater oral chelating efficiency than an identical dose of parenteral DF ([7]; oral 40 mg versus parenteral DF 40 mg): roughly 20%
excretion of radioiron [7, 12]: 28%
reduction in hepatic ⁵⁹Fe [7, 12]: 27%
tolerance ([8]; 100 mg/kg/d by oral or parenteral administration): well tolerated
biochemical tests of hepatic and renal function, complete blood counts, hepatic and renal histology ([8]; after 3 months of continuous treatment): no indications of toxicity
INHIBITION OF GROWTH OF DRUG-RESISTANT STRAIN OF P. falciparum % INHIBITION [2, 9]: 90.3%
Radioiron Distribution in % Feces [5]: 67.3±2.4%
Radioiron Distribution in % Total excretion [5]: 96.2±3.4%
Radioiron Distribution in % Urine [5]: 28.9±1.0%
Radioiron Distribution in % Blood [5]: 4.2±0.2%
Radioiron Distribution in % Liver [5]: 2.9±0.2%
Radioiron Distribution in % Spleen [5]: 0.06±0.03%
TOTAL EXCRETION OF RADIO-IRON IN RATS % [5]: 96.2± 3.4%

Cc1ncc(CO)c(C=NNc2cnccn2)c1O [Ex. 6, 1-[2′-pyrazyl]-2-[pyridoxylidene] hydrazine]
Inhibition of Ribonucleoside Diphosphate Reductase (RdR) % ([1]; dose 1 x 10⁻⁵ M): 64%
Inhibition of Ribonucleoside Diphosphate Reductase (RdR) % ([1]; dose 10 x 10⁻⁵ M): 81%
Inhibition of Ribonucleoside Diphosphate Reductase (RdR) % ([1]; dose 100 x 10⁻⁵ M): 83%

Cc1ncc(CO)c(C=NNc2ccccn2)c1O.O=S(=O)([O-])[O-].[Cu+2] [Ex. 7]
INHIBITION OF GROWTH OF DRUG-RESISTANT STRAIN OF P. falciparum % INHIBITION ([2]; molar concentration 1 x 10⁻¹², after 2 hours of exposure): 100 ^(**) %
